The subject of the series is CCRIS mutagenicity, Ames/micronucleus/aberration tests. Put plainly: CCRIS mutagenicity studies.
Setting [1] is: Test System: AMES SALMONELLA TYPHIMURIUM, Strain/Indicator: TA98, Metabolic Activation: NONE, Method: PREINCUBATION
Where [2] appears, read: Test System: AMES SALMONELLA TYPHIMURIUM, Strain/Indicator: TA100, Metabolic Activation: NONE, Method: PREINCUBATION
The mark [3] stands for this setting: Test System: AMES SALMONELLA TYPHIMURIUM, Strain/Indicator: TA1535, Metabolic Activation: NONE, Method: STANDARD PLATE.
[4] abbreviates: Test System: AMES SALMONELLA TYPHIMURIUM, Strain/Indicator: TA98, Metabolic Activation: NONE, Method: STANDARD PLATE.
Setting [5] is: Test System: AMES SALMONELLA TYPHIMURIUM, Strain/Indicator: TA100, Metabolic Activation: NONE, Method: STANDARD PLATE.
Setting [6] is: Test System: AMES SALMONELLA TYPHIMURIUM, Strain/Indicator: TA1535, Metabolic Activation: NONE, Method: PREINCUBATION
[7] abbreviates: Test System: AMES SALMONELLA TYPHIMURIUM, Strain/Indicator: TA1537, Metabolic Activation: NONE, Method: PREINCUBATION

Calls of active or inactive are those of the source. The rule behind the calls is not given here.

Take `[O-][n+]1cc2ncccc2cn1`: the mutagenic call runs as follows: under setting [1], “inactive; negative”; (Test System: AMES SALMONELLA TYPHIMURIUM, Strain/Indicator: TA98, Metabolic Activation: RAT, LIVER, S-9, PCB, Method: PREINCUBATION) “inactive; negative”; under setting [2], “inactive; negative”; (Test System: AMES SALMONELLA TYPHIMURIUM, Strain/Indicator: TA100, Metabolic Activation: RAT, LIVER, S-9, PCB, Method: PREINCUBATION) “inactive; negative”.

`OCc1cc2ccccc2c2ccc3ccccc3c12`: the mutagenic call reads like this: (Test System: AMES SALMONELLA TYPHIMURIUM, Strain/Indicator: TA98, Metabolic Activation: RAT, LIVER, CYTOSOL AND PAPS GENERATING SYSTEM, Method: PREINCUBATION) “active; positive”; (Test System: AMES SALMONELLA TYPHIMURIUM, Strain/Indicator: TA98, Metabolic Activation: RAT, LIVER, S-9 AND NADPH GENERATING SYSTEM, Method: PREINCUBATION) “inactive; negative”.

In the case of `O=C/C(Cl)=C(/Cl)C(=O)O`, the mutagenic call reads like this: under setting [3], “active; positive”; (Test System: CHINESE HAMSTER OVARY, Strain/Indicator: CHO-KTL3 (HPRT)/6-THIOGUANINE, Metabolic Activation: NONE) “active; positive”.

On to `CN1CCN(C2=Nc3ccccc3Oc3ccc(Cl)cc32)CC1`, for which the mutagenic call under setting [4] was “inactive; negative”; the mutagenic call (Test System: AMES SALMONELLA TYPHIMURIUM, Strain/Indicator: TA98, Metabolic Activation: RAT, LIVER, S-9, AROCLOR 1254, Method: STANDARD PLATE) is “inactive; negative”; the mutagenic call under setting [5] is “inactive; negative”; the mutagenic call (Test System: AMES SALMONELLA TYPHIMURIUM, Strain/Indicator: TA100, Metabolic Activation: RAT, LIVER, S-9, AROCLOR 1254, Method: STANDARD PLATE) is “inactive; negative”; the mutagenic call under setting [3] is “inactive; negative”; the mutagenic call (Test System: AMES SALMONELLA TYPHIMURIUM, Strain/Indicator: TA1535, Metabolic Activation: RAT, LIVER, S-9, AROCLOR 1254, Method: STANDARD PLATE) is “inactive; negative”. For the same molecule, the mutagenic call reads like this: (Test System: AMES SALMONELLA TYPHIMURIUM, Strain/Indicator: TA1537, Metabolic Activation: NONE, Method: STANDARD PLATE) “inactive; negative”; (Test System: AMES SALMONELLA TYPHIMURIUM, Strain/Indicator: TA1537, Metabolic Activation: RAT, LIVER, S-9, AROCLOR 1254, Method: STANDARD PLATE) “inactive; negative”.

Consider `CN(N=O)C(CCC(=O)O)c1cccnc1` (stereo not drawn), for which the mutagenic call (Test System: UDS RODENT HEPATOCYTES, Metabolic Activation: NONE) is “inactive; negative”.

With `O=[N+]([O-])c1ccccc1CBr`, the mutagenic call was “inactive; negative” under setting [1]; “inactive; negative” under setting [2]; “inactive; negative” (Test System: AMES SALMONELLA TYPHIMURIUM, Strain/Indicator: TA100, Metabolic Activation: RAT, LIVER, S-9, AROCLOR 1254, Method: PREINCUBATION).

For the molecule `[Cl][Ga]([Cl])[Cl]`, the mutagenic call reads like this: under setting [1], “inactive; negative”; (Test System: AMES SALMONELLA TYPHIMURIUM, Strain/Indicator: TA98, Metabolic Activation: RAT, LIVER, S-9 (10%), Method: PREINCUBATION) “inactive; negative”; under setting [2], “inactive; negative”; (Test System: AMES SALMONELLA TYPHIMURIUM, Strain/Indicator: TA100, Metabolic Activation: RAT, LIVER, S-9 (10%), Method: PREINCUBATION) “inactive; negative”.

In the case of `CCCC(c1cc(C(C)(C)C)c(O)cc1C)c1cc(C(C)(C)C)c(O)cc1C`, the mutagenic call runs as follows: under setting [4], “inactive; negative”; (Test System: AMES SALMONELLA TYPHIMURIUM, Strain/Indicator: TA98, Metabolic Activation: S-9, Method: STANDARD PLATE) “inactive; negative”; under setting [5], “inactive; negative”; (Test System: AMES SALMONELLA TYPHIMURIUM, Strain/Indicator: TA100, Metabolic Activation: S-9, Method: STANDARD PLATE) “inactive; negative”.

As to `C=C1/C(=C\C=C2/CCC[C@]3(C)[C@@H]([C@H](C)/C=C/[C@@H](O)C4CC4)CC[C@@H]23)C[C@@H](O)C[C@@H]1O`, the mutagenic call reads like this: under setting [1], “inactive; negative”; (Test System: AMES SALMONELLA TYPHIMURIUM, Strain/Indicator: TA98, Metabolic Activation: S-9, Method: PREINCUBATION) “inactive; negative”; under setting [2], “inactive; negative”; (Test System: AMES SALMONELLA TYPHIMURIUM, Strain/Indicator: TA100, Metabolic Activation: S-9, Method: PREINCUBATION) “inactive; negative”; under setting [6], “inactive; negative”; (Test System: AMES SALMONELLA TYPHIMURIUM, Strain/Indicator: TA1535, Metabolic Activation: S-9, Method: PREINCUBATION) “inactive; negative”. The mutagenic call is “inactive; negative” under setting [7]; “inactive; negative” (Test System: AMES SALMONELLA TYPHIMURIUM, Strain/Indicator: TA1537, Metabolic Activation: S-9, Method: PREINCUBATION); “inactive; negative” (Test System: E. COLI, Strain/Indicator: WP2 UVRA, Metabolic Activation: NONE, Method: PREINCUBATION); “inactive; negative” (Test System: E. COLI, Strain/Indicator: WP2 UVRA, Metabolic Activation: S-9, Method: PREINCUBATION).

As to `Nc1cccc(Cl)c1`, the mutagenic call is, setting by setting: (End Point: IN VITRO CHROMOSOMAL ABERRATIONS, Test System: CHL/IU CELLS, Metabolic Activation: NONE) “active; positive (structural changes)”; (End Point: IN VITRO MICRONUCLEUS, Test System: CHL/IU CELLS, Metabolic Activation: NONE) “active; positive”; under setting [1], “inactive; negative”; (Test System: AMES SALMONELLA TYPHIMURIUM, Strain/Indicator: TA98, Metabolic Activation: RAT, LIVER, S-9, AROCLOR 1254 (10%), Method: PREINCUBATION) “inactive; negative”; (Test System: AMES SALMONELLA TYPHIMURIUM, Strain/Indicator: TA100, Metabolic Activation: HAMSTER, LIVER, S-9, AROCLOR 1254 (10%), Method: PREINCUBATION) “inactive; negative”; under setting [2], “inactive; negative”. Moreover, the mutagenic call is “inactive; negative” (Test System: AMES SALMONELLA TYPHIMURIUM, Strain/Indicator: TA100, Metabolic Activation: RAT, LIVER, S-9, AROCLOR 1254 (10%), Method: PREINCUBATION); “inactive; negative” (Test System: AMES SALMONELLA TYPHIMURIUM, Strain/Indicator: TA1535, Metabolic Activation: HAMSTER, LIVER, S-9, AROCLOR 1254 (10%), Method: PREINCUBATION); “inactive; negative” under setting [6]; “inactive; negative” (Test System: AMES SALMONELLA TYPHIMURIUM, Strain/Indicator: TA1535, Metabolic Activation: RAT, LIVER, S-9, AROCLOR 1254 (10%), Method: PREINCUBATION); “inactive; negative” (Test System: AMES SALMONELLA TYPHIMURIUM, Strain/Indicator: TA1537, Metabolic Activation: HAMSTER, LIVER, S-9, AROCLOR 1254 (10%), Method: PREINCUBATION); “inactive; negative” under setting [7]. Further, the mutagenic call (Test System: AMES SALMONELLA TYPHIMURIUM, Strain/Indicator: TA1537, Metabolic Activation: RAT, LIVER, S-9, AROCLOR 1254 (10%), Method: PREINCUBATION) was “inactive; negative”; the mutagenic call (Test System: CHINESE HAMSTER V-79, Strain/Indicator: V-79/8-AZAGUANINE, Metabolic Activation: NONE, Method: SUSPENSION/PLATE) is “active; positive”; the mutagenic call (Test System: CHINESE HAMSTER V-79, Strain/Indicator: V-79/OUABAIN, Metabolic Activation: NONE, Method: SUSPENSION/PLATE) is “inactive; negative”.

Values taken from PubChem BioAssay AID1259407 (Chemical Carcinogenesis Research Information System (CCRIS), 2018).
